One data set deals with T1, p38γ (Homo sapiens, UniProt P53778).
T1 sequence (P53778 1-367): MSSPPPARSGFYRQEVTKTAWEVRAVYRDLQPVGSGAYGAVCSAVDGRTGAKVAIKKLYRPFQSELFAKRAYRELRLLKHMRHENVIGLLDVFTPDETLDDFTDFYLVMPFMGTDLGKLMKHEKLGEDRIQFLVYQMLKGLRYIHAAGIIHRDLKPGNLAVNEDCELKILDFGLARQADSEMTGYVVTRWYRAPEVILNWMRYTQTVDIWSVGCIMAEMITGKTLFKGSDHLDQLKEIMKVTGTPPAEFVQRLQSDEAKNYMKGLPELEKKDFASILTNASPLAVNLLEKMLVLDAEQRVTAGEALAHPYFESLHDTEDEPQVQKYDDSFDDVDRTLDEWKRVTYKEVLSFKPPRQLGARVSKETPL
As to the kind of experiment: In vitro inhibition of p38 kinase (LANCE Ultra TR-FRET). It counts as biochemical. As to conditions: read-out: Kinase in vitro IC50(nM) p38γ. Here is the method: 10 mM of the storage solution of the test compound was taken and placed in a 96-well compound plate, and using DMSO for the compound at an initial concentration of 100×, which was then used as the first concentration and then carried out a 3-fold gradient dilution with DMSO for a total of 10 concentrations. After that, 1 μL of gradient dilutions were added to 19 μL of 1× reaction buffer to prepare 5× compound for later use. […] To the compound-free control well was added 2 μL of the following liquid: 19 μL of 1× reaction buffer with addition of 1 μL of DMSO. To the Min control well was added 2 μL of 250 mM EDTA.
1× of LANCE® Detection value Buffer was used to prepare a 2×Antibody for use, and the amount was 5 μL per well, at the same time 10 mM EDTA was prepared for later use. After the enzyme reaction was carried out for 30 minutes, 5 μL 10 mM EDTA was added to the 384-well plate and the reaction was carried out at room temperature for 5 minutes. Afterwards, 5 μL LANCE® Ultra Europium-anti-phospho-eIF4E-binding protein 1 (Thr37/46) was added to the 384-well plate and the reaction was carried out at room temperature for one hour.

A short description of data set [1]: Pharmacokinetic properties in rats. It counts as in vivo, SD rats. Here is the method: Ten male SD rats, weighing 180-220 g (provided by Shanghai Xipuerbikai Laboratory Animal Co., Ltd, Certificate No.: 20130016008116). The rats were fasted for feed for 12-16 hours before the experiment but water was allowed.
Blood samples were collected from the fundus vein of rats before and at 2, 5, 15, 30, 60, 90, 120, 240, 360, 480, 600 and 1440 minutes after administration, respectively.
Blood samples were collected from the fundus vein of rats before and at 5, 15, 30, 60, 90, 120, 240, 360, 480, 600, 1440 minutes after administration respectively.
(§1) Blood samples were centrifuged at 8000 rpm for 5 minutes, and supernatant plasma was taken. To 50 μL of plasma samples was added 300 μL of acetonitrile containing internal standard (propranolol, 25 ng/mL) to precipitate the protein. After vortexing for 10 minutes and centrifuging at 6000 g and 4° C. for 10 minutes, the supernatant was taken and placed in a 96-well plate for determination of drug concentration in plasma by UPLC/MS-MS.

The target in another data set is p38α (Homo sapiens, UniProt Q16539). Nature of the data set: In vitro inhibition of p38 kinase (LANCE Ultra TR-FRET). It counts as biochemical. The conditions noted are these: read-out: Kinase in vitro IC50(nM) p38α. For orientation: TR-FRET usually uses a lanthanide donor and a delayed reading to cut background.
p38α, sequence (Q16539 whole entry): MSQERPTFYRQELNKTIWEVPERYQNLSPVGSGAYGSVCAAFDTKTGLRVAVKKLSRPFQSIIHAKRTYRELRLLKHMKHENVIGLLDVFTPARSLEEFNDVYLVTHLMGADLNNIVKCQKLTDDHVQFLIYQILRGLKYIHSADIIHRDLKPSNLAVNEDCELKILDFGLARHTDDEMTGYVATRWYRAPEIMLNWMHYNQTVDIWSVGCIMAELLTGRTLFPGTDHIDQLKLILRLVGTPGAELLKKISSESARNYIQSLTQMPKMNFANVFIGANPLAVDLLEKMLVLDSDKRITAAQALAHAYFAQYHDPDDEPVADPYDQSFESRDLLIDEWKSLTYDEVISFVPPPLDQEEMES
The nature of data set [2]: Pharmacokinetic properties in mice. It counts as in vivo, ICR mice. As to conditions: for absorption compared with the positive compound VX-745 at the same dose: 10 mg/kg; for Thalf (iv): iv 3 mg/kg; for Cmax / MRT / Tmax: male, ICR, mouse, plasma; for Cmax / MRT / Tmax / AUClast (po): po 10 mg/kg; for BA: po 10 mg/kg vs iv 3 mg/kg; for AUClast (po): 5-1440 minutes. The protocol:
Forty-eight male ICR mice, weighing 18-22 g (provided by Shanghai Xipuerbikai Laboratory Animal Co., Ltd, Certificate No.: 20130016008116). The mice were […] for 12-16 hours before the experiment but water was allowed.
Blood samples were collected from the fundus vein of mice before and at 2, 5, 15, 30, 60, 90, 120, 240, 480, 600, and 1440 minutes of the administration, respectively.
Blood samples were collected from the fundus vein of mice before and at 5, 15, 30, 60, 90, 120, 240, 480 and 1440 minutes of administration, respectively.
2-3 time points were taken for each mouse. The mice were sacrificed at 5, 15, 30, 60 and 1440 minutes after the administration (3 mice per time point), and the brains were taken, rinsed with saline, dried on filter paper and weighed.
as §1

In a further data set the target is p38β (Homo sapiens, UniProt Q15759). As to the kind of experiment: In vitro inhibition of p38 kinase (LANCE Ultra TR-FRET). Format: biochemical. The conditions noted are these: read-out: Kinase in vitro IC50(nM) p38β.
p38β, sequence (Q15759 whole entry): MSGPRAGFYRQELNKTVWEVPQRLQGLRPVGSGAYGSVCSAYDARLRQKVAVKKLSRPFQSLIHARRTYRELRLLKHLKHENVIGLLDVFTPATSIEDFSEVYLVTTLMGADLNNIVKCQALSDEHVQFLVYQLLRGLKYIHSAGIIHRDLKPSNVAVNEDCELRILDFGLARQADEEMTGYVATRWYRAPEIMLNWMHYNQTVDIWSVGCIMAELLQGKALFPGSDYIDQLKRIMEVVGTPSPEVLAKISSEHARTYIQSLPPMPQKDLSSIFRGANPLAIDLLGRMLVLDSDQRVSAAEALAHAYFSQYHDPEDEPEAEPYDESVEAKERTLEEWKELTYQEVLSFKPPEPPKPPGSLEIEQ
Another data set deals with BV-2 cells. As to the kind of experiment: Inhibition of inflammation in LPS-stimulated BV-2 cells (ELISA of inflammatory factors). Format: cell-based. As to conditions: Mus musculus, 100 ng/mL LPS 4 hours; for Emax: read-out: BV-2 Max Inh. (%); for IC50: read-out: BV-2 Rf IC50. Here is the method: Normal cultured 8th passage BV-2 cells were taken, and inoculated separately in 96-well plates at a certain cell density. The cell culture plates were cultured at 37° C. and 5% CO2 for 24 hours.
After inoculating the plate for 24 hours, the cell culture medium was removed, and then 100 μL of a 4-fold gradient dilution compound starting from 10,000 nM prepared in DMEM+10% FBS, where High control and Low control contained 0.1% DMSO without compound. With 100 μL per well, the cell culture plate was cultured at 37° C. with 5% CO2 for one hour.
The compound-containing cultures were removed. 100 ng/mL of LPS was prepared with DMEM+10% FBS culture medium, and then the compound was diluted in a 4-fold gradient from 10,000 nM with LPS-containing culture medium. In low control, the compound was replaced with 0.1% DMSO. In High control, 0.1% DMSO was prepared with culture medium without LPS. 100 μL per well, and the cell culture plates were cultured at 37° C. with 5% CO2 for 4 hours.
After 4 hours of LPS stimulation, 110 μL of the culture solution was aspirated, and centrifuged at 2000 rpm for 2 minutes. A further 90 μl of supernatant was aspirated and immediately put into −20° C. for freezing.
ELISA kits were used to detect the expression of inflammatory factors such as IL-10, TNFα, etc. The OD450 signal values were measured by microplate reader. The in vitro inhibitory activity of the compounds was calculated according to the following formula: Inhibition rate: Inhibition rate (%)=(signal value of control−signal value of administration)/(high signal value of control−low signal value of control)×100%. And according to the inhibition rate of each concentration, Graphpad Prism 5.0 was used to curve fit the […] signal values at each concentration and calculate the corresponding IC50, which is shown in Table 1.
(In general: An ELISA detects its analyte on a solid surface through an enzyme-linked reagent.)

[3] abbreviates: male, SD, plasma, rat, po 6 mg/kg.

As to `O=c1ncn2nc(Oc3ccc(F)cc3)ccc2c1-c1c(Cl)cccc1Cl` [Compound I-19, 5-(2,6-dichlorophenyl)-2-(4-fluorophenoxy)-6H-pyrimido[1,6-b]pyridazin-6-one], the IC50 at p38γ is more than 3330 nM; on p38α, 22.4 nM; on p38β it was 391 nM; with BV-2 cells, 53.8 nM. For the same molecule, the maximum concentration (Cmax) in data set [1] (setting [3]) worked out at 1090 ng/mL; in data set [2], 1820 ng/mL. Moreover, the MRT is 5.73 h in data set [1] (setting [3]) and 5.55 h in data set [2]. Besides, the Tmax in data set [1] (setting [3]) came out at 3 h; in data set [2], 1.33 h. Besides, the “Thalf (iv)” value stood at 2.81 h in data set [1] (rat, iv 3 mg/kg) and 3.73 h in data set [2]. Also, the BA in data set [1] (rat, po 6 mg/kg vs iv 3 mg/kg) is 87.87%; in data set [2] it was 158.7%. Also, the “AUClast (po)” value in data set [1] (rat, po 6 mg/kg, 5-1440 minutes) is listed as 7172 (h)*(ng/mL); in data set [2], 11457 (h)*(ng/mL). Further, the “absorption compared with the positive compound VX-745 at the same dose” value in data set [1] (rats, 6 mg/kg) is given as “significantly higher”; in data set [2] it was “significantly higher”. Besides, in the data set on BV-2 cells, the Emax was 61.7%.
Consider `O=c1ncn2nc(Oc3ccc(Cl)cc3Cl)ccc2c1-c1c(Cl)cccc1Cl` [Compound I-20, 2-(2,4-dichlorophenoxy)-5-(2,6-dichlorophenyl)-6H-pyrimido[1,6-b]pyridazin-6-one], for which the IC50 at p38γ was more than 3330 nM; at p38α it was 17.6 nM; on p38β, 96 nM; in the data set with BV-2 cells, 23.3 nM. Further, the Emax in the data set with BV-2 cells was -60%.
With `O=c1ncn2nc(Oc3cc(F)ccc3F)ccc2c1-c1c(Cl)cccc1Cl` [Compound I-21, 5-(2,6-dichlorophenyl)-2-(2,5-difluorophenoxy)-6H-pyrimido[1,6-b]pyridazin-6-one], the half-maximal inhibitory concentration (IC50) on p38γ is more than 3330 nM; on p38α, 27.7 nM; on p38β, 226 nM; in the data set with BV-2 cells, 19.2 nM. Moreover, the Emax in the data set with BV-2 cells was found to be 51.3%.
On to `O=c1ncn2nc(Oc3cc(Cl)ccc3Cl)ccc2c1-c1c(Cl)cccc1Cl` [Compound I-22, 2-(2,5-dichlorophenoxy)-5-(2,6-dichlorophenyl)-6H-pyrimido[1,6-b]pyridazin-6-one], for which the IC50 on p38γ was more than 3330 nM; at p38α, 31.3 nM; on p38β, 150 nM; in the data set on BV-2 cells, 18.3 nM. In addition, the Emax in the data set on BV-2 cells came out at 53.6%.
Regarding `O=c1ncn2nc(Oc3cccc(F)c3F)ccc2c1-c1c(Cl)cccc1Cl` [Compound I-23, 5-(2,6-dichlorophenyl)-2-(2,3-difluorophenoxy)-6H-pyrimido[1,6-b]pyridazin-6-one], the IC50 on p38γ is more than 3330 nM; on p38α, 46.9 nM; on p38β, 243 nM; in the data set with BV-2 cells, 17.2 nM. Further, in the data set with BV-2 cells, the Emax is -50%.
Regarding `O=c1ncn2nc(Oc3ccccc3F)ccc2c1-c1c(Cl)cccc1Cl` [Compound I-27, 5-(2,6-dichlorophenyl)-2-(2-fluorophenoxy)-6H-pyrimido[1,6-b]pyridazin-6-one], the half-maximal inhibitory concentration (IC50) was more than 3330 nM on p38γ, 11.7 nM at p38α, 109 nM on p38β and 18.8 nM with BV-2 cells. In the data set with BV-2 cells, the Emax was found to be 41.9%.
As to `O=c1ncn2nc(Oc3c(F)ccc(F)c3Cl)ccc2c1-c1c(Cl)cccc1Cl` [Compound I-29, 2-(2-chloro-3,6-difluorophenoxy)-5-(2,6-dichlorophenyl)-6H-pyrimido[1,6-b]pyridazin-6-one], the IC50 at p38γ was more than 3330 nM; at p38α, 34.1 nM; at p38β, 406 nM; in the data set on BV-2 cells, 678 nM. Moreover, the Emax in the data set with BV-2 cells is -50%.
The like results for `O=c1ncn2nc(Oc3ccc(Br)cc3)ccc2c1-c1c(Cl)cccc1Cl` [Compound I-39, 2-(4-bromophenoxy)-5-(2,6-dichlorophenyl)-6H-pyrimido[1,6-b]pyridazin-6-one] were, in that order, more than 3330 nM, 35.6 nM, 602 nM, 296 nM and 56.6%.
On to `O=c1ncn2nc(Oc3ccc(F)c(F)c3F)ccc2c1-c1c(Cl)cccc1Cl` [Compound I-40], for which the concentration for half-maximal inhibition (IC50) at p38γ was more than 3330 nM; on p38α, 23 nM; at p38β, 111 nM; in the data set on BV-2 cells, 41.5 nM. The Emax in the data set on BV-2 cells is 47.7%.
Regarding `CC(C)N1CCN(c2cc3c(-c4c(Cl)cccc4Cl)c(=O)ncn3nc2Oc2ccc(F)cc2F)CC1` [Compound I-60, 5-(2,6-dichlorophenyl)-2-(2,4-difluorophenoxy)-3-(4-isopropylpiperazin-1-yl)-6H-pyrimido[1,6-b]pyridazin-6-one], the IC50 on p38γ is more than 3330 nM; on p38α it was 14.8 nM; on p38β, 111 nM; in the data set with BV-2 cells, 12.4 nM. The Emax with BV-2 cells was determined as 34.5%.
Take `O=c1ncn2nc(Oc3ccc(F)cc3F)ccc2c1-c1c(F)cccc1Cl` [Compound I-62, 5-(2-chloro-6-fluorophenyl)-2-(2,4-difluorophenoxy)-6H-pyrimido[1,6-b]pyridazin-6-one]: the half-inhibitory concentration (IC50) on p38γ is more than 3330 nM. Moreover, the IC50 on p38α stood at 12.1 nM. In addition, in data set [2], the “absorption compared with the positive compound VX-745 at the same dose” value is “better”, the “Thalf (iv)” value was found to be 3.32 h, the Cmax was 1600 ng/mL and the mean residence time (MRT) was 3.18 h. In data set [2], the time to peak (Tmax) worked out at 1 h, the BA was 103.4% and the “AUClast (po)” value is listed as 4522 (h)*(ng/mL). The IC50 at p38β turned out to be 101 nM. In the data set with BV-2 cells, the Emax came to 48.6% and the 50% inhibitory concentration (IC50) is 14.2 nM.

What is called IC50 is the concentration that gives 50% inhibition. Usually Cmax stands for the peak of the concentration-time curve. The MRT is a mean duration of stay, worked out from the concentration-time curve. One may read the Tmax as the time at which the peak concentration occurs.

The values above are taken from US20220048915A1 (SHANGHAI PHARMACEUTICALS HOLDING CO., LTD., priority 2018, published 2022).
